How the values were obtained:
Format in all cases: cell-based
SPRR2D = assay: Gene expression (RNAm) of SPRR2D in human keratinocytes NHEK per RT-qPCR; conditions: each compound at 10 μg/ml, 18 hours incubation, standardized to RPS28 and GAPDH
Protocol: (§1) The effect of the lycopene and manganese was studied separately then in combination on the gene expression profile (RNAm) of human keratinocytes NHEK (normal human epidermal keratinocytes) per RT-qPCR.
(§2) A 24-well plate was seeded with keratinocytes then placed into culture for 24 hours. The culture medium was then replaced with the test medium comprising according to the cases 0 (negative control), one or two tested compounds. The cells were incubated in this test medium for 18 hours then washed and frozen at −80° C. Each condition was carried out in triplicate. Two samples of each triplicate were grouped together, then the RNAm was extracted therefrom using TriPure Isolation Reagent® according to the supplier's recommendations. The ADNc was synthesized via reverse transcription of total RNA by “Transcriptor Reverse Transcriptase” from Roche. Then a quantitative PCR was performed in the presence of a fluorophore. The incorporation of fluorophore in the amplified DNA was measured during the PCR cycles. Two genes were used as a reference (RPS28 ad GADPH), in order to standardize the results. As such the level of expression of the studied genes was compared to the average level of expression of these two reference genes for all of the conditions tested.
(§3) For this test, the source of lycopene is Lyc-o-Mato marketed by Lycored and the source manganese is manganese sulfate.

GAPDH = assay: Gene expression of reference gene GAPDH in human keratinocytes NHEK per RT-qPCR; conditions: each compound at 10 μg/ml, 18 hours incubation
Protocol: as §1, §2, §3

RPS28 = assay: Gene expression of reference gene RPS28 in human keratinocytes NHEK per RT-qPCR; conditions: each compound at 10 μg/ml, 18 hours incubation
Protocol: as §1, §2, §3

What does the source list for manganese sulfate?
SPRR2D expression expressed as a percentage in relation to the conditions without added compound (SPRR2D): 106%; Control (GAPDH) expression expressed as a percentage in relation to the conditions without added compound (GAPDH): 96%; Control (RPS28) expression expressed as a percentage in relation to the conditions without added compound (RPS28): 117%

Source: patent publication US10744072B2, “Cosmetic composition for oral administration for reinforcing the skin barrier” (NUTRICOS Technologies, priority 2015, dated 2020)
